This experiment concerns S. typhimurium ST19 Mfd. Kind of experiment: RNAP displacement (transcription roadblock) assay. The note with it: Mfd 100 nM pre-incubated with ARM-1 (12.5 μM); without ARM-1 EC/IC=0.33. Format: biochemical. Here is the method:
FIGS. 2A-2D depict how ARM-1 affects Mfd's biochemical activity. FIG. 2A depicts how the kd of ARM-1 was determined using microscale thermophoresis. Data shown represent a minimum of three independent experiments. FIG. 2B depicts a NADH-coupled ATPase assay. ATP hydrolysis by Mfd was coupled to NADH oxidation. Phosphoenolpyruvate is converted to pyruvate by pyruvate kinase, transferring a phosphate group onto ADP, which is only present in the reaction following ATP hydrolysis by Mfd. Pyruvate is then converted to lactate by lactate dehydrogenase, oxidizing NADH to NAD^+. Absorbance at 340 nm by NADH is used to monitor the reaction. Data shown represent a minimum of 3 biological replicates. FIG. 2C depicts a transcription roadblock assay. A P32-labled 176 bp PCR fragment was incubated with E. coli RNAP along with saturating concentrations of ATP, GTP, and UTP. 100 nM S. typhimurium ST19 Mfd preincubated with indicated concentrations of ARM-1 was added and the reaction allowed to proceed for 6 minutes. DNA products were then resolved on a polyacrylamide gel and analyzed by phosphorimaging. […] Quantification of these gels is shown below each lane. […]
Mfd translocates along double-stranded DNA and dislodges stalled RNAP complexes. […] When quantified, a ratio of EC to IC of approximately 1 was observed, which was consistent with prior work. […]

Turning to `Cc1cc(Br)ccc1-c1ccc(CNCCCN(C)C)o1` [ARM-1, N^1-((5-(4-bromo-2-methylphenyl)furan-2-yl)methyl)-N^3,N^3-dimethylpropane-1,3-diamine], the “EC/IC (elongation complex to initiation complex ratio)” value is 0.46.

Source of the values: patent US20260015333A1, “COMPOUNDS AND METHODS FOR INHIBITION OF THE EVOLUTION OF […]” (priority 2022, published 2026).
